In general, pIC50 refers to the IC50 on a negative log10 scale, so that one unit is a factor of ten. A low value points to a high IC50.

pIC50: −log10 of the molar value.

Tyk2, sequence (P29597 whole entry): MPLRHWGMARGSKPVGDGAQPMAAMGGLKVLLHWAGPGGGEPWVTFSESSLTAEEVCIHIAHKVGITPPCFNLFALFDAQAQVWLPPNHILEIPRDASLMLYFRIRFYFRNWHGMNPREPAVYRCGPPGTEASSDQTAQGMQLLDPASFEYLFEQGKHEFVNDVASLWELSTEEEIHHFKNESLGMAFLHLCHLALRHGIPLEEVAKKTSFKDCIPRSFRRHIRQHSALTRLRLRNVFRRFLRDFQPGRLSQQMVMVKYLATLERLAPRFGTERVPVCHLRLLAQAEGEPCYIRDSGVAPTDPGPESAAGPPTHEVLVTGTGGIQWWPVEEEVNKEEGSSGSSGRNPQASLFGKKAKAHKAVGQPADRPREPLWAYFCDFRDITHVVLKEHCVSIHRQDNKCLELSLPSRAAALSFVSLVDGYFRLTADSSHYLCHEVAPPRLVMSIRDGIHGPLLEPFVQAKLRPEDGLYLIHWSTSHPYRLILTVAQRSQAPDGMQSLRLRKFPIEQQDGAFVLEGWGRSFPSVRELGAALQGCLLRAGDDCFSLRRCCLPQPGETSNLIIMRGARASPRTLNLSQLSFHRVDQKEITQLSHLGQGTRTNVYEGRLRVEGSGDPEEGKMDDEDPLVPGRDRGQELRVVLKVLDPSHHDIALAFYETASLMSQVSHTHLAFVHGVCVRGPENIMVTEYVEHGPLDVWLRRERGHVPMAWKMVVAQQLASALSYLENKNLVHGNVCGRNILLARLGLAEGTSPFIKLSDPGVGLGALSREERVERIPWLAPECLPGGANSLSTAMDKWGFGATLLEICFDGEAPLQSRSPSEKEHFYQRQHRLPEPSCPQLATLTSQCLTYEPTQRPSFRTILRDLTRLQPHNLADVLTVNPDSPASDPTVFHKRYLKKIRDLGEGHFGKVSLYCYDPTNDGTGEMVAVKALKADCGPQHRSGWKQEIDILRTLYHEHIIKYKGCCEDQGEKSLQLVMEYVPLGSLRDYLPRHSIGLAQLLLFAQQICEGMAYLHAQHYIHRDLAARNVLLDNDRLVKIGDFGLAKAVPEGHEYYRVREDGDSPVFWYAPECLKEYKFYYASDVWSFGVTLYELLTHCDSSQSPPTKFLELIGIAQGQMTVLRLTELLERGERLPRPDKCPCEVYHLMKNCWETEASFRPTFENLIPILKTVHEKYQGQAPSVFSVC

One experiment addresses Tyk2 (Homo sapiens (Human), UniProt P29597). Briefly: pSTAT4 Cell Assay (MSD, NK92 cells). In kind it is cell-based.
Settings: not given
Compound `CCc1cc(Nc2cc(NC(C)=O)ncc2-c2ccc(F)c(CN3C[C@@H]4C[C@H]3CO4)n2)nc(C(C)(F)F)n1` [Example 906, N-(6-(((1S,4S)-2-oxa-5-azabicyclo[2.2.1]heptan-5-yl)methyl)-4′-((2-(1,1-difluoroethyl)-6-ethylpyrimidin-4-yl)amino)-5-fluoro-[2,3′-bipyridin]-6′-yl)acetamide] had a pIC50 not below 8.00. On the same count and under the same terms, the figure for `CCc1cc(Nc2cc(NC(C)=O)ncc2-c2ccc(CN3CCCC3)cn2)nc(C(C)(F)F)n1` [Example 901, N-(4′-((2-(1,1-difluoroethyl)-6-ethylpyrimidin-4-yl)amino)-5-(pyrrolidin-1-ylmethyl)-[2,3′-bipyridin]-6′-yl)acetamide] is not below 8.00. On the same count and under the same terms, the figure for `CCc1cc(Nc2cc(NC(C)=O)ncc2-c2ccc(CN3C[C@H]4C[C@@H](C3)O4)cn2)nc(C(C)(F)F)n1` [Example 912, N-(5-(((1R,5S)-6-oxa-3-azabicyclo[3.1.1]heptan-3-yl)methyl)-4′-((2-(1,1-difluoroethyl)-6-ethylpyrimidin-4-yl)amino)-[2,3′-bipyridin]-6′-yl)acetamide] is not below 8.00. The same measure, in the same setting: the figure for `CC(=O)Nc1cc(Nc2ccnc(C(C)(F)F)n2)c(-c2cnc(OC(F)F)cn2)cn1` [Example 854, N-(4-((2-(1,1-difluoroethyl)pyrimidin-4-yl)amino)-5-(5-(difluoromethoxy)pyrazin-2-yl)pyridin-2-yl)acetamide] is 7.00 to 8.00; for `CCc1cc(Nc2cc(NC(C)=O)ncc2-c2ccc(F)c(CN3CCOCC3)n2)nc(C(C)(F)F)n1` [Example 910, N-(4′-((2-(1,1-difluoroethyl)-6-ethylpyrimidin-4-yl)amino)-5-fluoro-6-(morpholinomethyl)-[2,3′-bipyridin]-6′-yl)acetamide] it is not below 8.00. `CCc1cc(Nc2cc(NC(C)=O)ncc2-c2ccc(F)c(CN3C[C@H]4C[C@@H]3CO4)n2)nc(C(C)(F)F)n1` [Example 908, N-(6-(((1R,4R)-2-oxa-5-azabicyclo[2.2.1]heptan-5-yl)methyl)-4′-((2-(1,1-difluoroethyl)-6-ethylpyrimidin-4-yl)amino)-5-fluoro-[2,3′-bipyridin]-6′-yl)acetamide] showed a pIC50 not below 8.00. Still for that read-out and setting: the figure for `CC(=O)Nc1cc(Nc2cc(C)nc(C(C)(F)F)n2)c(-c2ccc(P(C)(C)=O)nn2)cn1` [Example 917, N-(4-((2-(1,1-difluoroethyl)-6-methylpyrimidin-4-yl)amino)-5-(6-(dimethylphosphoryl)pyridazin-3-yl)pyridin-2-yl)acetamide] is 7.00 to 8.00.

Still in this experiment, the particulars now being: MSD.
`CC(=O)Nc1cc(Nc2ccnc(C(C)(F)F)n2)c(-c2cnc(C)cn2)cn1` [Example 693, N-(4-((2-(1,1-difluoroethyl)pyrimidin-4-yl)amino)-5-(5-methylpyrazin-2-yl)pyridin-2-yl)acetamide] had a pIC50 of 7.00 to 8.00. As for `COCc1ccc(-c2cnc(NC(C)=O)cc2Nc2cc(C)nc(C3CCCOC3)n2)nc1` (stereo not shown) [Example 571, N-(5-(methoxymethyl)-4′-((6-methyl-2-(tetrahydrO2H-pyran-3-yl)pyrimidin-4-yl)amino)-[2,3′-bipyridin]-6′-yl)acetamide], the negative logarithm of the IC50 (pIC50) is 7.00 to 8.00. In the case of `CC(=O)Nc1cc(Nc2cc(C)nc(C(C)(F)F)n2)c(-c2ccnc(N(C)C)n2)cn1` [Example 629, N-(4-((2-(1,1-difluoroethyl)-6-methylpyrimidin-4-yl)amino)-5-(2-(dimethylamino)pyrimidin-4-yl)pyridin-2-yl)acetamide], the pIC50 is not below 8.00.

The compound `CC(=O)Nc1cc(Nc2cc(C)nc(C(C)(F)F)n2)c(OCc2cnccn2)cn1` [Example 126, N-(4-((2-(1,1-difluoroethyl)-6-methylpyrimidin-4-yl)amino)-5-(pyrazin-2-ylmethoxy)pyridin-2-yl)acetamide] showed a pIC50 of 7.00 to 8.00. Still for that read-out and setting: the figure for `CC(=O)Nc1cc(Nc2cc(C)nc(C(C)(F)F)n2)c(OCC(=O)N(C)C)cn1` [Example 103, 2-((6-acetamido-4-((2-(1,1-difluoroethyl)-6-methylpyrimidin-4-yl)amino)pyridin-3-yl)oxy)-N,N-dimethylacetamide] is 6.00 to 7.00; for `COCc1ccc(-c2cnc(NC(C)=O)cc2Nc2nc(C(C)(F)F)ncc2OC)nc1` [Example 589, N-(4′-((2-(1,1-difluoroethyl)-5-methoxypyrimidin-4-yl)amino)-5-(methoxymethyl)-[2,3′-bipyridin]-6′-yl)acetamide] it is not below 8.00; for `CNC(=O)COc1cnc(NC(C)=O)cc1Nc1cc(C)nc(C(C)(F)F)n1` [Example 102, 2-((6-acetamido-4-((2-(1,1-difluoroethyl)-6-methylpyrimidin-4-yl)amino)pyridin-3-yl)oxy)-N-methylacetamide] it is 7.00 to 8.00.

For the compound `CC(=O)Nc1cc(Nc2cc(C)nc(C(C)(F)F)n2)c(-c2cccc(C3CCCO3)n2)cn1` (stereo not shown) [Example 639, N-(4′-((2-(1,1-difluoroethyl)-6-methylpyrimidin-4-yl)amino)-6-(tetrahydrofuran-2-yl)-[2,3′-bipyridin]-6′-yl)acetamide], the pIC50 is not below 8.00.

`COCCOc1cc(Nc2cc(NC(C)=O)ncc2-c2ccn(C)n2)nc(C(C)(F)F)n1` [Example 207, N-(4-((2-(1,1-difluoroethyl)-6-(2-methoxyethoxy)pyrimidin-4-yl)amino)-5-(1-methyl-1H-pyrazol-3-yl)pyridin-2-yl)acetamide]: the pIC50 was not below 8.00. For the compound `CC(=O)Nc1cc(Nc2cc(C)nc(C(C)(F)F)n2)c(-c2cc3n(n2)CCN(C)C3C)cn1` (stereo not shown) [Example 683, N-(4-((2-(1,1-difluoroethyl)-6-methylpyrimidin-4-yl)amino)-5-(4,5-dimethyl-4,5,6,7-tetrahydropyrazolo[1,5-a]pyrazin-2-yl)pyridin-2-yl)acetamide], the pIC50 is not below 8.00. Still for that read-out and setting: the figure for `COc1cnc(NC(C)=O)cc1Nc1cc(-c2cnc(C)s2)nc(C(C)(F)F)n1` [Example 387, N-(4-((2-(1,1-difluoroethyl)-6-(2-methylthiazol-5-yl)pyrimidin-4-yl)amino)-5-methoxypyridin-2-yl)acetamide] is not below 8.00.

Take `COc1ccnc(-c2cnc(NC(C)=O)cc2Nc2cc(C)nc(C(C)(F)F)n2)n1` [Example 658, N-(4-((2-(1,1-difluoroethyl)-6-methylpyrimidin-4-yl)amino)-5-(4-methoxypyrimidin-2-yl)pyridin-2-yl)acetamide]: the negative logarithm of the IC50 (pIC50) was not above 6.00. Still for that read-out and setting: the same measure for `CC(=O)Nc1cc(Nc2cc(C)nc(C(C)(F)F)n2)c(OCc2nccs2)cn1` [Example 108, N-(4-((2-(1,1-difluoroethyl)-6-methylpyrimidin-4-yl)amino)-5-(thiazol-2-ylmethoxy)pyridin-2-yl)acetamide]: 7.00 to 8.00; for `CC(=O)Nc1cc(Nc2cc(C)nc(C(C)(F)F)n2)c(OCc2ccnc(F)c2)cn1` [Example 120, N-(4-((2-(1,1-difluoroethyl)-6-methylpyrimidin-4-yl)amino)-5-((2-fluoropyridin-4-yl)methoxy)pyridin-2-yl)acetamide]: 7.00 to 8.00.

On to `CC(=O)Nc1cc(Nc2cc(C)nc(C3CCOC3)n2)c(-c2cc3n(n2)CCN(C)C3)cn1` (stereo not shown) [Example 547, N-(4-((6-methyl-2-(tetrahydrofuran-3-yl)pyrimidin-4-yl)amino)-5-(5-methyl-4,5,6,7-tetrahydropyrazolo[1,5-a]pyrazin-2-yl)pyridin-2-yl)acetamide], for which the pIC50 is not below 8.00.

With `COc1cc(COc2cnc(NC(C)=O)cc2Nc2cc(C)nc(C(C)(F)F)n2)ccn1` [Example 114, N-(4-((2-(1,1-difluoroethyl)-6-methylpyrimidin-4-yl)amino)-5-((2-methoxypyridin-4-yl)methoxy)pyridin-2-yl)acetamide], the pIC50 is 7.00 to 8.00. In turn, `COc1cc(Nc2cc(NC(C)=O)ncc2-c2ccn(C)n2)nc(C(C)(F)F)c1` [Example 209, N-(4-((6-(1,1-difluoroethyl)-4-methoxypyridin-2-yl)amino)-5-(1-methyl-1H-pyrazol-3-yl)pyridin-2-yl)acetamide] gave a pIC50 not below 8.00. The same measure, in the same setting: the same measure for `CC(=O)Nc1cc(Nc2cc(C)nc(C(C)(F)F)n2)c(OCc2cc(C)sn2)cn1` [Example 115, N-(4-((2-(1,1-difluoroethyl)-6-methylpyrimidin-4-yl)amino)-5-((5-methylisothiazol-3-yl)methoxy)pyridin-2-yl)acetamide]: not below 8.00; for `COCCOc1cc(Nc2cc(NC(C)=O)ncc2-c2ccn(C)n2)nc(C(C)(F)F)c1` [Example 210, N-(4-((6-(1,1-difluoroethyl)-4-(2-methoxyethoxy)pyridin-2-yl)amino)-5-(1-methyl-1H-pyrazol-3-yl)pyridin-2-yl)acetamide]: not below 8.00. On the same count and under the same terms, the same measure for `CC(=O)Nc1cc(Nc2cc(C)nc(C(C)(F)F)n2)c(OCc2ccc(C)cn2)cn1` [Example 130, N-(4-((2-(1,1-difluoroethyl)-6-methylpyrimidin-4-yl)amino)-5-((5-methylpyridin-2-yl)methoxy)pyridin-2-yl)acetamide]: 7.00 to 8.00; for `CC(=O)Nc1cc(Nc2cc(C)nc(C(C)(F)F)n2)c(OCc2nc(C)cs2)cn1` [Example 112, N-(4-((2-(1,1-difluoroethyl)-6-methylpyrimidin-4-yl)amino)-5-((4-methylthiazol-2-yl)methoxy)pyridin-2-yl)acetamide]: 7.00 to 8.00; for `CC(=O)Nc1cc(Nc2cc(C)nc(C(C)(F)F)n2)c(OC[C@H]2COC(C)(C)O2)cn1` [Example 124, (S)-N-(4-((2-(1,1-difluoroethyl)-6-methylpyrimidin-4-yl)amino)-5-((2,2-dimethyl-1,3-dioxolan-4-yl)methoxy)pyridin-2-yl)acetamide]: not below 8.00. Still for that read-out and setting: the figure for `CC(=O)Nc1cc(Nc2cc(C)nc(C(C)(F)F)n2)c(OCCN2CCN(C)CC2)cn1` [Example 106, N-(4-((2-(1,1-difluoroethyl)-6-methylpyrimidin-4-yl)amino)-5-(2-(4-methylpiperazin-1-yl)ethoxy)pyridin-2-yl)acetamide] is 7.00 to 8.00.

As for `CC(=O)Nc1cc(Nc2cc(C)nc(C(C)(F)F)n2)c(-c2nc3c(s2)CN(C)C3)cn1` [Example 684, N-(4-((2-(1,1-difluoroethyl)-6-methylpyrimidin-4-yl)amino)-5-(5-methyl-5,6-dihydrO4H-pyrrolo[3,4-d]thiazol-2-yl)pyridin-2-yl)acetamide], the pIC50 is not below 8.00.

The record behind these values is patent US20260028365A1 (BIOGEN MA INC., priority 2022, published 2026).
